± gives the standard deviation of the averaged measurements.
Assays:
[1] = compound: COc1cc2ncnc(Nc3ccc(F)c(Cl)c3)c2cc1NC(=O)/C=C/CN1CCCCC1; assay: surviving fraction relative to DMSO-only wells; higher = less growth inhibition; details: exposure time: 5 days
How it was run: (§1)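 Each tumour cell line was screened three times, and only lines with replicate Pearson r >0.7 and median Z' >0.3 were kept. Cells in log phase were seeded at 250–500 per well in 384-well plates, left 24 hours, then exposed continuously for five days to inhibitors at 0.5, 1, 5, 10, 50, 100, 500 and 1000 nM. Viability was read as CellTiter-Glo luminescence, with surviving fraction normalised to the median of DMSO-only wells.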

MLN-4924 = compound: NS(=O)(=O)OC[C@@H]1C[C@@H](n2ccc3c(N[C@H]4CCc5ccccc54)ncnc32)C[C@@H]1O [MLN-4924]; assay: as above; details: exposure time: 5 days
How it was run: as §1

Test System: HUO3N1 BONE
- surviving fraction ([1]; 0.5 nM): 1.03 ± 0.037
- surviving fraction ([1]; 1 nM): 0.983 ± 0.057
- surviving fraction ([1]; 5 nM): 1.06 ± 0.065
- surviving fraction ([1]; 10 nM): 1 ± 0.016
- surviving fraction ([1]; 50 nM): 1.07 ± 0.073
- surviving fraction ([1]; 100 nM): 1.03 ± 0.059
- surviving fraction ([1]; 500 nM): 0.789 ± 0.018
- surviving fraction ([1]; 1000 nM): 0.629 ± 0.032
- surviving fraction (MLN-4924; 0.5 nM): 0.9977 ± 0.0055
- surviving fraction (MLN-4924; 1 nM): 0.994 ± 0.022
- surviving fraction (MLN-4924; 5 nM): 1.02 ± 0.017
- surviving fraction (MLN-4924; 10 nM): 1.05 ± 0.036
- surviving fraction (MLN-4924; 50 nM): 1.17 ± 0.041
- surviving fraction (MLN-4924; 100 nM): 1.19 ± 0.034
- surviving fraction (MLN-4924; 500 nM): 0.663 ± 0.031
- surviving fraction (MLN-4924; 1000 nM): 0.528 ± 0.014

Test System: JIMT1 BREAST
- surviving fraction ([1]; 0.5 nM): 1 ± 0.044
- surviving fraction ([1]; 1 nM): 0.989 ± 0.031
- surviving fraction ([1]; 5 nM): 0.91883 ± 0.00029
- surviving fraction ([1]; 10 nM): 0.862 ± 0.012
- surviving fraction ([1]; 50 nM): 0.653 ± 0.013
- surviving fraction ([1]; 100 nM): 0.667 ± 0.016
- surviving fraction ([1]; 500 nM): 0.545 ± 0.019
- surviving fraction ([1]; 1000 nM): 0.362 ± 0.025
- surviving fraction (MLN-4924; 0.5 nM): 1.06 ± 0.04
- surviving fraction (MLN-4924; 1 nM): 1.016 ± 0.0069
- surviving fraction (MLN-4924; 5 nM): 1.06 ± 0.019
- surviving fraction (MLN-4924; 10 nM): 1.06 ± 0.017
- surviving fraction (MLN-4924; 50 nM): 1.09 ± 0.056
- surviving fraction (MLN-4924; 100 nM): 1.06 ± 0.062
- surviving fraction (MLN-4924; 500 nM): 0.764 ± 0.046
- surviving fraction (MLN-4924; 1000 nM): 0.539 ± 0.073

Test System: JURKAT HAEMATOPOIETIC AND LYMPHOID TISSUE
- surviving fraction ([1]; 0.5 nM): 1.08 ± 0.037
- surviving fraction ([1]; 1 nM): 1.06 ± 0.029
- surviving fraction ([1]; 5 nM): 1.06 ± 0.043
- surviving fraction ([1]; 10 nM): 1.02 ± 0.017
- surviving fraction ([1]; 50 nM): 1.03 ± 0.026
- surviving fraction ([1]; 100 nM): 1.04 ± 0.034
- surviving fraction ([1]; 500 nM): 0.881 ± 0.056
- surviving fraction ([1]; 1000 nM): 0.297 ± 0.025
- surviving fraction (MLN-4924; 0.5 nM): 1.07 ± 0.016
- surviving fraction (MLN-4924; 1 nM): 1.02 ± 0.032
- surviving fraction (MLN-4924; 5 nM): 1.01 ± 0.025
- surviving fraction (MLN-4924; 10 nM): 0.931 ± 0.025
- surviving fraction (MLN-4924; 50 nM): 0.371 ± 0.012
- surviving fraction (MLN-4924; 100 nM): 0.154 ± 0.0059
- surviving fraction (MLN-4924; 500 nM): 0.0333 ± 0.00058
- surviving fraction (MLN-4924; 1000 nM): 0.0313 ± 0.00058

Test System: KPD BONE
- surviving fraction ([1]; 0.5 nM): 1.03 ± 0.068
- surviving fraction ([1]; 1 nM): 1.05 ± 0.04
- surviving fraction ([1]; 5 nM): 1.04 ± 0.037
- surviving fraction ([1]; 10 nM): 1.04 ± 0.015
- surviving fraction ([1]; 50 nM): 1.05 ± 0.079
- surviving fraction ([1]; 100 nM): 1.04 ± 0.019
- surviving fraction ([1]; 500 nM): 0.718 ± 0.034
- surviving fraction ([1]; 1000 nM): 0.493 ± 0.025
- surviving fraction (MLN-4924; 0.5 nM): 0.9553 ± 0.0032
- surviving fraction (MLN-4924; 1 nM): 0.985 ± 0.028
- surviving fraction (MLN-4924; 5 nM): 1.04 ± 0.057
- surviving fraction (MLN-4924; 10 nM): 1.09 ± 0.094
- surviving fraction (MLN-4924; 50 nM): 0.921 ± 0.045
- surviving fraction (MLN-4924; 100 nM): 0.736 ± 0.048
- surviving fraction (MLN-4924; 500 nM): 0.239 ± 0.017
- surviving fraction (MLN-4924; 1000 nM): 0.183 ± 0.022

Test System: LM7 BONE
- surviving fraction ([1]; 0.5 nM): 0.93 ± 0.059
- surviving fraction ([1]; 1 nM): 0.998 ± 0.078
- surviving fraction ([1]; 5 nM): 0.983 ± 0.063
- surviving fraction ([1]; 10 nM): 1.06 ± 0.094
- surviving fraction ([1]; 50 nM): 1.01 ± 0.011
- surviving fraction ([1]; 100 nM): 0.957 ± 0.055
- surviving fraction ([1]; 500 nM): 0.532 ± 0.063
- surviving fraction ([1]; 1000 nM): 0.287 ± 0.006
- surviving fraction (MLN-4924; 0.5 nM): 0.919 ± 0.081
- surviving fraction (MLN-4924; 1 nM): 1.02 ± 0.026
- surviving fraction (MLN-4924; 5 nM): 1.09 ± 0.059
- surviving fraction (MLN-4924; 10 nM): 0.946 ± 0.034
- surviving fraction (MLN-4924; 50 nM): 0.486 ± 0.033
- surviving fraction (MLN-4924; 100 nM): 0.256 ± 0.026
- surviving fraction (MLN-4924; 500 nM): 0.1 ± 0.02
- surviving fraction (MLN-4924; 1000 nM): 0.1 ± 0.0098

Test System: LNCAP PROSTATE
- surviving fraction ([1]; 0.5 nM): 0.807 ± 0.074
- surviving fraction ([1]; 1 nM): 0.828 ± 0.13
- surviving fraction ([1]; 5 nM): 0.858 ± 0.19
- surviving fraction ([1]; 10 nM): 0.888 ± 0.16
- surviving fraction ([1]; 50 nM): 0.95 ± 0.043
- surviving fraction ([1]; 100 nM): 1.02 ± 0.048
- surviving fraction ([1]; 500 nM): 0.896 ± 0.097
- surviving fraction ([1]; 1000 nM): 0.797 ± 0.12
- surviving fraction (MLN-4924; 0.5 nM): 0.939 ± 0.1
- surviving fraction (MLN-4924; 1 nM): 1 ± 0.021
- surviving fraction (MLN-4924; 5 nM): 0.803 ± 0.092
- surviving fraction (MLN-4924; 10 nM): 0.496 ± 0.051
- surviving fraction (MLN-4924; 50 nM): 0.085 ± 0.014
- surviving fraction (MLN-4924; 100 nM): 0.026 ± 0.001
- surviving fraction (MLN-4924; 500 nM): 0.0227 ± 0.0011
- surviving fraction (MLN-4924; 1000 nM): 0.024

Test System: MCF7 BREAST
- surviving fraction ([1]; 0.5 nM): 0.908 ± 0.061
- surviving fraction ([1]; 1 nM): 0.938 ± 0.022
- surviving fraction ([1]; 5 nM): 0.922 ± 0.08
- surviving fraction ([1]; 10 nM): 0.971 ± 0.096
- surviving fraction ([1]; 50 nM): 1.01 ± 0.043
- surviving fraction ([1]; 100 nM): 0.966 ± 0.034
- surviving fraction ([1]; 500 nM): 1.01 ± 0.012
- surviving fraction ([1]; 1000 nM): 0.927 ± 0.07
- surviving fraction (MLN-4924; 0.5 nM): 0.889 ± 0.029
- surviving fraction (MLN-4924; 1 nM): 0.9226 ± 0.0022
- surviving fraction (MLN-4924; 5 nM): 0.935 ± 0.013
- surviving fraction (MLN-4924; 10 nM): 0.975 ± 0.027
- surviving fraction (MLN-4924; 50 nM): 0.641 ± 0.063
- surviving fraction (MLN-4924; 100 nM): 0.448 ± 0.062
- surviving fraction (MLN-4924; 500 nM): 0.265 ± 0.026
- surviving fraction (MLN-4924; 1000 nM): 0.235 ± 0.016

Test System: MDAMB134 BREAST
- surviving fraction ([1]; 0.5 nM): 0.947 ± 0.17
- surviving fraction ([1]; 1 nM): 1.07 ± 0.061
- surviving fraction ([1]; 5 nM): 0.944 ± 0.014
- surviving fraction ([1]; 10 nM): 0.981 ± 0.14
- surviving fraction ([1]; 50 nM): 1.05 ± 0.28
- surviving fraction ([1]; 100 nM): 1.02 ± 0.21
- surviving fraction ([1]; 500 nM): 0.795 ± 0.012
- surviving fraction ([1]; 1000 nM): 0.732 ± 0.013
- surviving fraction (MLN-4924; 0.5 nM): 0.904 ± 0.21
- surviving fraction (MLN-4924; 1 nM): 1.036 ± 0.0099
- surviving fraction (MLN-4924; 5 nM): 0.934 ± 0.12
- surviving fraction (MLN-4924; 10 nM): 0.731 ± 0.1
- surviving fraction (MLN-4924; 50 nM): 0.562 ± 0.14
- surviving fraction (MLN-4924; 100 nM): 0.393 ± 0.03
- surviving fraction (MLN-4924; 500 nM): 0.267 ± 0.0035
- surviving fraction (MLN-4924; 1000 nM): 0.281 ± 0.005

Test System: MDAMB157 BREAST
- surviving fraction ([1]; 0.5 nM): 0.951 ± 0.025
- surviving fraction ([1]; 1 nM): 0.894 ± 0.018
- surviving fraction ([1]; 5 nM): 1 ± 0.046
- surviving fraction ([1]; 10 nM): 0.964 ± 0.056
- surviving fraction ([1]; 50 nM): 0.95 ± 0.094
- surviving fraction ([1]; 100 nM): 0.864 ± 0.051
- surviving fraction ([1]; 500 nM): 0.887 ± 0.1
- surviving fraction ([1]; 1000 nM): 0.63 ± 0.095
- surviving fraction (MLN-4924; 0.5 nM): 1 ± 0.019
- surviving fraction (MLN-4924; 1 nM): 0.966 ± 0.087
- surviving fraction (MLN-4924; 5 nM): 0.968 ± 0.07
- surviving fraction (MLN-4924; 10 nM): 0.931 ± 0.041
- surviving fraction (MLN-4924; 50 nM): 0.906 ± 0.09
- surviving fraction (MLN-4924; 100 nM): 0.743 ± 0.054
- surviving fraction (MLN-4924; 500 nM): 0.379 ± 0.043
- surviving fraction (MLN-4924; 1000 nM): 0.267 ± 0.022

Test System: MDAMB231 BREAST
- surviving fraction ([1]; 0.5 nM): 1.03 ± 0.024
- surviving fraction ([1]; 1 nM): 1.02 ± 0.024
- surviving fraction ([1]; 5 nM): 1.05 ± 0.019
- surviving fraction ([1]; 10 nM): 1.047 ± 0.01
- surviving fraction ([1]; 50 nM): 1.02 ± 0.035
- surviving fraction ([1]; 100 nM): 1 ± 0.024
- surviving fraction ([1]; 500 nM): 0.692 ± 0.022
- surviving fraction ([1]; 1000 nM): 0.488 ± 0.039
- surviving fraction (MLN-4924; 0.5 nM): 0.9815 ± 0.006
- surviving fraction (MLN-4924; 1 nM): 0.978 ± 0.026
- surviving fraction (MLN-4924; 5 nM): 0.971 ± 0.025
- surviving fraction (MLN-4924; 10 nM): 0.933 ± 0.024
- surviving fraction (MLN-4924; 50 nM): 0.676 ± 0.0082
- surviving fraction (MLN-4924; 100 nM): 0.62 ± 0.035
- surviving fraction (MLN-4924; 500 nM): 0.243 ± 0.0094
- surviving fraction (MLN-4924; 1000 nM): 0.175 ± 0.0081

Test System: MDAMB361 BREAST
- surviving fraction ([1]; 0.5 nM): 0.896 ± 0.049
- surviving fraction ([1]; 1 nM): 0.909 ± 0.035
- surviving fraction ([1]; 5 nM): 0.922 ± 0.052
- surviving fraction ([1]; 10 nM): 0.833 ± 0.03
- surviving fraction ([1]; 50 nM): 0.738 ± 0.017
- surviving fraction ([1]; 100 nM): 0.745 ± 0.055
- surviving fraction ([1]; 500 nM): 0.586 ± 0.019
- surviving fraction ([1]; 1000 nM): 0.543 ± 0.046
- surviving fraction (MLN-4924; 0.5 nM): 0.894 ± 0.12
- surviving fraction (MLN-4924; 1 nM): 0.785 ± 0.028
- surviving fraction (MLN-4924; 5 nM): 0.829 ± 0.051
- surviving fraction (MLN-4924; 10 nM): 0.853 ± 0.1
- surviving fraction (MLN-4924; 50 nM): 0.735 ± 0.048
- surviving fraction (MLN-4924; 100 nM): 0.736 ± 0.061
- surviving fraction (MLN-4924; 500 nM): 0.594 ± 0.03
- surviving fraction (MLN-4924; 1000 nM): 0.549 ± 0.042

From the supplement of paper PMC6045584
